{
  "source": "patent US20250197642A1",
  "about": "“PHTHALOCYANINE PIGMENT, PHTHALOCYANINE COMPOUND, COLORING COMPOSITION, METHOD FOR PRODUCING PHTHALOCYANINE PIGMENT, AND METHOD FOR PRODUCING COLORING COMPOSITION” (FUJIFILM CORPORATION, priority 2022, published 2025)",
  "key": {"[1]": {"test": "Evaluation of storage stability (viscosity increase proportion after storage)", "assay_type": "physicochemical", "conditions": "aqueous coloring compositions 1 to 8 and A to C; stored 7 days at 45° C., viscosity at 25° C.", "protocol": "In an environment of 45° C. by an oven, the coloring compositions 1 to 8 and the coloring compositions A to C were stored for 7 days.\nA viscosity of the coloring composition before and after the storage was measured, a viscosity increase proportion (Viscosity after storage−Viscosity before storage)/Viscosity before storage×100 was determined, and the evaluation was performed based on the following evaluation standard.\nThe viscosity of the coloring composition was measured using a viscometer RE85L (rotor: 1°34′×R24, measurement range: 0.6 to 1200 mPa·s) manufactured by TOKI-SANGYO Co., Ltd. in a state in which the temperature was adjusted to 25° C.\n• A: viscosity increase proportion was 10% or less. • B: viscosity increase proportion was more than 10%."}, "[2]": {"test": "Evaluation of light fastness (compound residual rate after xenon light irradiation of ink jet image)", "assay_type": "physicochemical", "conditions": "aqueous coloring compositions 1 to 8 and A to C; image on art paper, xenon light 85,000 lux, 100 hours", "from_the_text": "The pigment dispersion liquid 1, a polyurethane resin (HYDRAN (registered trademark) AP-40F (manufactured by DIC Corporation)), and deionized water were mixed to produce an aqueous pigment dispersion liquid 1 having a pigment content of 10% by mass and a polyurethane resin non-volatile content of 2% by mass.\nThe following components were mixed to obtain a coloring composition 1.\nColoring compositions 2 to 8 were obtained in the same manner as in the above-described method, except that the pigment dispersion liquid 1 was changed to each of the pigment dispersion liquids 2 to 8.\nA coloring composition A was obtained in the same manner as in the above-described method, except that the pigment dispersion liquid 1 was changed to the pigment dispersion liquid A. […]\nThe above-described image was irradiated with xenon light (85,000 lux) for 100 hours using a weather meter (manufactured by Atlas, Ci65), and a reflection density after the irradiation with xenon light was measured using a reflection densitometer (manufactured by X-Rite, Inc., trade name: X-Rite i1Pro). […]\nA compound residual rate (%) before and after the irradiation with xenon light was calculated from the following expression, and evaluated based on the following evaluation standard. […]"}},
  "data": [
    {"substance": "C. I. Pigment Green 58 [PG58]", "values": [
      {"measurement": "Evaluation of storage stability", "setting": "[1]", "result": "B (viscosity increase proportion was more than 10%)"},
      {"measurement": "Evaluation of light fastness", "setting": "[2]", "result": "A (compound residual rate was 80% or more)"}
    ]}
  ]
}
